The values that follow are results of earlier work, collected in patent US12350135B2, “Absorbent article with odor control composition” (The Procter & Gamble Company, priority 2021, dated 2025).

Where a name gives a salt, the structure may show the parent alone.

Settings in the first data set: not given
In the case of `ClC=CC[N+]12CN3CN(CN(C3)C1)C2.[Cl-]` [Dowicil 200, 1-(3-Chlorallyl)-3,5,7-triaza-1-azoniaadamantane chloride], the “solubility in water (in words)” value is “freely soluble in water”.

Staying with this data set, now noted: in water.
Consider `OCCOc1ccccc1` [2-phenoxyethanol], for which the water solubility entry is recorded as “about 2.67%”.

Consider `OCCc1ccccc1` [2-phenylethanol], for which the water solubility entry was “about 2%”. As for `O=[N+]([O-])C1(Br)COCOC1` [Bronidox L, 5-bromo-5-nitro-1,3-dioxane], the water solubility entry was “about 0.46%”. With `CC1(C)C(=O)N(CO)C(=O)N1CO` [DMDM hydantoin, 1,3-bis(hydroxymethyl)-5,5-dimethyI-2,4-imidazolidinedione], the water solubility entry is recorded as “more than 50%”. As to `OCc1ccccc1` [benzyl alcohol], the water solubility entry is “about 4%”.

Take `[H]/N=C(\N/C(=N/[H])NCCCCCCNC(=N)NC(=N)Nc1ccc(Cl)cc1)Nc1ccc(Cl)cc1` [chlorhexidine diacetate salt, 1,1′-hexamethylene bis(5-(p-chlorophenyl)biguanide), reference compound]: the water solubility result is on record as “about 1.8%”. With `[H]/N=C(\N/C(=N/[H])NCCCCCCNC(=N)NC(=N)Nc1ccc(Cl)cc1)Nc1ccc(Cl)cc1` [chlorhexidine digluconate salt, 1,1′-hexamethylene bis(5-(p-chlorophenyl)biguanide), reference compound], the water solubility result was “about 70%”. Regarding `CC(C)(O)C(Cl)(Cl)Cl` [chlorobutanol, 1,1,1,-Trichloro-2-methylpropan-2-ol], the water solubility entry was “about 0.8%”. In the case of `[Na+].[O-][n+]1ccccc1[S-]` [sodium pyrithione], the water solubility result is “about 50%”.
